In patent US8592436B2, “Arylamide pyrimidone derivatives” (Sanofi, priority 2007, dated 2013):

How the values were obtained:
[1] = target: GSK3β (Homo sapiens, UniProt P49841); experiment: Inhibitory activity against GSK3β (33P-ATP phosphorylation of prephosphorylated GS1 peptide, two protocols); type: biochemical; settings: protocol used not stated
Experimental: Two different protocols can be used. In a first protocol: 7.5 μM of prephosphorylated GS1 peptide and 10 μM ATP (containing 300,000 cpm of ^33P-ATP) were incubated in 25 mM Tris-HCl, pH 7.5, 0.6 mM DTT, 6 mM MgCl2, 0.6 mM EGTA, 0.05 mg/ml BSA buffer for 1 hour at room temperature in the presence of GSK3beta (total reaction volume: 100 microliters). In a second protocol: 4.1 μM of prephosphorylated GS1 peptide and 42 μM ATP (containing 260,000 cpm ^33P-ATP) were incubated in 80 mM Mes-NaOH, pH 6.5, 1 mM Mg acetate, 0.5 mM EGTA, 5 mM 2-mercaptoethanol, 0.02% Tween 20, 10% glycerol buffer for 2 hours at room temperature in the presence of GSK3beta. Inhibitors were solubilized in DMSO (final solvent concentration in the reaction medium, 1%). The reaction was stopped with 100 microliters of a solution made of 25 g polyphosphoric acid (85% P2O5), 126 ml 85% H3PO4, H2O to 500 ml and then diluted to 1:100 before use. An aliquot of the reaction mixture was then transferred to Whatman P81 cation exchange filters and rinsed with the solution described above. Incorporated ^33P radioactivity was determined by liquid scintillation spectrometry. The phosphorylated GS-1 peptide had the following sequence: NH2-[…](P)EDEE-COOH. SEQ ID NO: 1 (Woodgett, J. R. (1989) Analytical Biochemistry 180, 237-241.

Chain of GSK3β (P49841 whole entry): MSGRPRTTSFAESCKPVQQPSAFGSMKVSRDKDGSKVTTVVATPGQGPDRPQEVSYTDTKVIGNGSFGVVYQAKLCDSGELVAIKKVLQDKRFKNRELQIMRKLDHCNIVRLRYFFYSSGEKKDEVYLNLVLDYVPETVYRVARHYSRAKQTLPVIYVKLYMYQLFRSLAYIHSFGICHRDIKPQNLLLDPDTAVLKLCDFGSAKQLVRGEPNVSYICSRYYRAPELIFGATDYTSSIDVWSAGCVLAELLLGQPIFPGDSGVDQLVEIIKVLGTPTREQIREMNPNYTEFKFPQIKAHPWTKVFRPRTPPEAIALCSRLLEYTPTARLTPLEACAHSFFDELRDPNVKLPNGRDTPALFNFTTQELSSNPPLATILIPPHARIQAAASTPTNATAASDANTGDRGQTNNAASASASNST

IC50 [1]: 23 nM
melting point: 239 to 241 °C
Compound: COc1ccccc1C(=O)NCc1nc(-c2ccncn2)cc(=O)n1C [compound 1, 2-Methoxy-N-(1-methyl-6-oxo-1,6-dihydro-[4,4′]bipyrimidinyl-2-ylmethyl)-benzamide]
